The test system of assay [1] is mammalian extracellular vesicles (Expi293 cells). Description: SPR binding to mammalian vesicles on LP chip. Particulars: 312.5 nM–40 µM, 25 °C. From the text: tween-80 (SI Fig. S4F). Note that higher concentrations were used to resolve the interaction above non-specific chip binding and the loss of polymyxin B to binding of plastics as discussed […]
OMVs isolated from polymyxin-resistant bacteria (resistant-OMVs) were composed of modified lipid A (SI Table S1 and SI Fig. S6) and were immobilized via amine-coupled polymyxin B to the surface of a C1 chip (SI Fig. S4G). Given the results of our studies here, the binding of resistant-OMVs to the amine-coupled polymyxin B surface (stably, at least within the time frames used here) is not surprising. OMVs have several advantages over whole cells and purified LPS. They can be produced in large batches and frozen for multiple experiments. OMVs can be isolated from potentially any genetic background (such as the two polymyxin-resistant strains used here), from potentially any gram-negative bacterial strains, and allow interrogation of types of LPS which are not commercially available (ex. modified lipid A species). […]
Analysis and compartment temperature were set to 25°C. Mammalian vesicles from Expi293 cells were isolated as described19 by harvesting supernatants and concentrating vesicles via ultra-centrifugation (120,000 xg, 4°C, 1h), washing, suspending pellet in PBS, quantifying by Bradford protein assay, and diluting to […] in PBS. […]

The test system of the next assay is resistant-OMVs. In words: Three-state model fit to SPR titration, resistant-OMVs. It is filed as binding, E. coli. Particulars: resistant-OMV. From the text:
To estimate binding constants, the three-state model was fit to binding curve titrations (Fig. 5A, B, and Table 2). Briefly, the SPR response curves of polymyxin B binding wt-OMVs (Fig. 5A) or resistant OMVs (Fig. 5B) were globally fit to Eqn. (1) by non-linear regression coupled to numerical integration of the associated ordinary differential equations (see Supplementary Information Section 2A), which define the time-dependent concentrations of each species.1 Response(t)=([PMBL]t+[nPMBL]t+2*[tPMB]t+m.[cPMB]t).MW.G.
Section 2A - Formulation of three-state model for fitting SPR data
The three-state model (Fig. 4) was formulated as a set of coupled ordinary differential equations (ODEs), with eight binding rate constants (k1-8) governing the rates of interchange of each species.
Forward rate constants k7 and k9 were eliminated from the equation set as formation of transient species tPMB and LL are irreversible.
Time at Injection 1 start = 0 s
Sample contact time = 30 s
Dissociation time interval = 35 s
Mass transport rate = kt = 46.5 1/s
Initial Species Concentrations
Coupled ODEs of Three-State Model d[L]/dt = -(k1.[PMB].[L] - k2.[PMBL])+2*k10.[LL] (S8) d[PMB]/dt = -(k1.[PMB].[L] - k2.[PMBL]) + kt’.([PMBi](t) –[PMB]) (S9) d[PMBL]/dt = (k1.[PMB]*[L] - k2.[PMBL])-(k3.[PMBL].[n] - k4.[nPMBL] ) (S10) d[n]/dt = -(k3.[PMBL].[n] - k4.[nPMBL] ) (S11) d[nPMBL]/dt = (k3.[PMBL].[n] - k4.[nPMBL])-2.(k5.[nPMBL].[nPMBL] - k6.[tPMB].[LL] ) (S12) d[tPMB]/dt = (k5.[nPMBL].[nPMBL] - k6.[tPMB].[LL] ) – k8.[tPMB] (S13) d[cPMB]/dt = 2*k8.[tPMB] (S14) d[LL]/dt = (k5.[nPMBL].[nPMBL] – k6.[tPMB].[LL]) – k10.[LL] (S15)
The initial concentrations of each species were as follows
[PMB]t=0 = [PMBL]t=0 = [nPMBL]t=0 = [tPMB]t=0 = [LL]t=0 = [cPMB]t=0 = 0 [L]t=0 = [n]t=0 = 1.56 x 10-4 (units, M) kt’ (units, m/s) was already defined in SI Section 1A. [PMBi](t) is the injected concentration profile and [PMB]t is the concentration profile at the sensing surface. [PMBi](t) follows a serial-doubling concentration of injected analyte, with a concentration profile defined by a serial step function, where each injection step represents a discrete concentration followed by a dissociation step without injected analyte and this is repeated for each concentration in the SCK dosing series.
Kintek Explorer V9.5 was used to build and fit the three-state model. This program employs its own numerical integrator9, which reports the change in concentration of each species over time.
The SPR responses for concentrations of each accumulating PMB-species estimated from Eqn (8 - 15) are summed over time in Eqn (1), repeated here.
Response(t) = ([PMBL]t+[nPMBL]t+2*[tPMB]t+m.[cPMB]t).MW.G. Eqn (1)
The concentration of [tPMB]t is multiplied by two to account for its additional mass, being composed of two PMB molecules. […]

Bridge positions count the residues as written; N and C are the ends. Square brackets hold non-standard residues; d marks the D form. Peptide text beside a SMILES is read from it. * marks the point of attachment. X1 = CC[C@H](C)CCCCC(=O)*; Dab = NCC[C@H](N)C(=O)O

As for `CC[C@H](C)CCCCC(=O)N[C@@H](CCN)C(=O)N[C@H](C(=O)N[C@@H](CCN)C(=O)N[C@H]1CCNC(=O)[C@H]([C@@H](C)O)NC(=O)[C@H](CCN)NC(=O)[C@H](CCN)NC(=O)[C@H](CC(C)C)NC(=O)[C@@H](Cc2ccccc2)NC(=O)[C@H](CCN)NC1=O)[C@@H](C)O` [Polymyxin B] (X1-[Dab]T[Dab][Dab][Dab][dF]L[Dab][Dab]T; lactam 4-C (inferred); N-terminus assumed), the “SPR binding to mammalian cell derived vesicles” value in assay [1] was “distinct from what we observe with OMVs and bacterial cells”. Moreover, in the assay with resistant-OMVs (first two states, max 625 nM), the k3 came to 335 M⁻¹ s⁻¹ and the k4 was found to be 0.0085 s⁻¹. In addition, the Kd at resistant-OMVs (fitted, first two states, max 625 nM, read-out: KD = k2/k1) was 268 nM. This molecule registered a kt in the assay with resistant-OMVs (mass transport rate) of 44.6 ms^−1.

The record behind these values is PMC11148078, “Potent activity of polymyxin B is associated with long-lived super-stoichiometric accumulation mediated by weak-affinity binding to lipid A” (Nature Communications, 2024).
